Source: the supplement of paper PMC10307832

Experiments:
Experiment in all cases: relative viability (nuclei count vs DMSO), 5 days (fraction); higher = more cells survive
[1] = compound: CC1=CC(=C(N1C2=CC=C(C=C2)Cl)C)C(=O)CN3CCCCC3 [IU1-47] + CC(C)C[C@H](NC(=O)[C@H](Cc1ccccc1)NC(=O)c1cnccn1)B(O)O [Bortezomib] (partner 0.002 µM)
Procedure, shortened: (§1)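 Five library-drug doses in √10 steps were combined with a fixed anchor-drug dose, or a single drug was given alone, by pin tool to lung cancer cell lines in 1536-well plates the day after seeding. Nuclei were stained and counted after 5 days. Relative viability is the nuclei count in treated wells over that in vehicle wells, taken as the median of duplicate plates.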

[2] = compound: CC1=CC(=C(N1C2=CC=C(C=C2)Cl)C)C(=O)CN3CCCCC3 [IU1-47] + C[C@@H](Oc1cc(-c2cnn(C3CCNCC3)c2)cnc1N)c1c(Cl)ccc(F)c1Cl [Crizotinib] (partner 1 µM)
Procedure, shortened: as §1

[3] = compound: Cc1nc(C(=O)NCC(=O)O)c(O)c2ccc(Oc3ccccc3)cc12 [FG-4592] + CC(C)C[C@H](NC(=O)[C@H](Cc1ccccc1)NC(=O)c1cnccn1)B(O)O [Bortezomib] (partner 0.002 µM)
Procedure, shortened: as §1

[4] = compound: Cc1nc(C(=O)NCC(=O)O)c(O)c2ccc(Oc3ccccc3)cc12 [FG-4592] + NC(=O)Nc1cc(-c2cccc(F)c2)sc1C(=O)N[C@H]1CCCNC1 [AZD7762] (partner 0.2 µM)
Procedure, shortened: as §1

Cell Line	relative viability ([1]; first compound 0.08 µM)	relative viability ([1]; first compound 0.253 µM)	relative viability ([1]; first compound 0.8 µM)	relative viability ([1]; first compound 2.53 µM)	relative viability ([1]; first compound 8 µM)	relative viability ([2]; first compound 0.08 µM)	relative viability ([2]; first compound 0.253 µM)	relative viability ([2]; first compound 0.8 µM)	relative viability ([2]; first compound 2.53 µM)	relative viability ([2]; first compound 8 µM)	relative viability ([3]; first compound 0.08 µM)	relative viability ([3]; first compound 0.253 µM)	relative viability ([3]; first compound 0.8 µM)	relative viability ([3]; first compound 2.53 µM)	relative viability ([3]; first compound 8 µM)	relative viability ([4]; first compound 0.08 µM)	relative viability ([4]; first compound 0.253 µM)	relative viability ([4]; first compound 0.8 µM)	relative viability ([4]; first compound 2.53 µM)	relative viability ([4]; first compound 8 µM)
HCC-44	0.891	0.851	0.89	0.873	0.898	0.801	0.784	0.809	0.77	0.799	0.817	0.894	0.946	0.921	0.889	0.993	1.01	1.16	1.06	0.997
HCC-78	0.712	0.562	0.49	0.381	0.596	0.334	0.358	0.336	0.324	0.386	0.558	0.51	0.406	0.453	0.371	0.558		0.534	0.625	0.662
NCI-H727	0.742		1.13	0.979	0.704	0.929		0.857	0.798	0.658	0.738	0.698	0.83	0.797	1.07	0.51	0.555	0.763	0.563	0.482
NCI-H2087	1.12	0.978	0.93	0.914	0.616	1.01	0.83	0.947	1.04	0.806	0.775	0.864	0.983	0.832	0.789	1.34	1.24	1.32		1.38
BEN	0.755	0.906	1.07	0.848	0.641	0.841	0.99	1.03	0.816	0.752	0.608	0.733	0.701	0.825	0.546	0.555	0.617	0.476	0.666	0.527
LCLC-103H	1.2	1.14	1.1	1.12	1.08	1.15	1.06	1.06	1.05	1.09	1.04	1.01	1.02	1.09	1.15	0.609	0.741	0.635	0.785	0.686
EKVX	1.18	1.11	1.18	1.13	0.985	0.981	1.14	1.05	0.892	0.793	1.1	0.94	1.06	1.17	0.885	0.732	0.628	0.758	0.665	0.747
LXF-289	0.993	1.06	1.05	1.05	0.954	0.854	0.858	0.82	0.796	0.817	1.02	0.886	1.05	0.97	0.973	1.12	1.01	1.27	1.08	1.34
ABC-1	0.327	0.281	0.256		0.312	1.12	1.13	0.796		0.8	0.365		0.308	0.359	0.22	0.665	0.762	0.794	1.09	0.693
NCI-H650	0.908	0.811	0.952	0.742	0.681	0.685	0.788	0.695	0.71	0.648	0.903	0.771	0.525	0.66	0.807	1.06	1.03	1.09	1.04	0.755
NCI-H2085	0.969	0.968	1.06	0.948	0.944	0.911	0.847	0.851	0.869	0.739	0.998	1.02	1.01	0.963	1.06	0.983	0.956	0.905	0.992	0.893
LC-2-ad	1.03	1.08	1.1	1.03	0.97	0.412	0.444	0.434	0.572	0.41	0.98	1.02	0.973	1.05	0.878	0.912	0.833	0.831	0.817	0.83
NCI-H1355	1.3	1.21	1.33	0.978	1.16	1.17	1.09	1.14	1	1.14	1.2	1.15		1.1	1.25	0.907	0.669		0.809	0.723
H3255	1.15	1.12	0.766	0.793	0.619	0.989	1.07	0.908	0.778	0.807	0.816	0.606	0.752	0.744	0.906	0.902	0.802	0.995	0.754	0.831
NCI-H1993	1.26	1.25	1.18	1.37	1.18	0.928	0.84	0.965	0.85	0.864	1.12	0.828	1.06	1.25	0.894	0.769	0.723		0.892	0.56
NCI-H1734	0.936	0.93	0.906		0.874	0.658	0.688	0.646		0.647	0.743	0.956	0.861	0.838	0.951	0.63	0.474	0.456	0.547	0.427
HOP-62	0.926	1.05	0.701	0.753	0.77	0.918	0.873	0.901	0.441	0.971	0.602	0.816	0.628	0.754	0.985	0.501	0.509	0.476	0.472	0.529

Cell Line	relative viability ([1]; first compound 0.08 µM)	relative viability ([1]; first compound 0.253 µM)	relative viability ([1]; first compound 0.8 µM)	relative viability ([1]; first compound 2.53 µM)	relative viability ([1]; first compound 8 µM)	relative viability ([2]; first compound 0.08 µM)	relative viability ([2]; first compound 0.253 µM)	relative viability ([2]; first compound 0.8 µM)	relative viability ([2]; first compound 2.53 µM)	relative viability ([2]; first compound 8 µM)	relative viability ([3]; first compound 0.08 µM)	relative viability ([3]; first compound 0.253 µM)	relative viability ([3]; first compound 0.8 µM)	relative viability ([3]; first compound 2.53 µM)	relative viability ([3]; first compound 8 µM)	relative viability ([4]; first compound 0.08 µM)	relative viability ([4]; first compound 0.253 µM)	relative viability ([4]; first compound 0.8 µM)	relative viability ([4]; first compound 2.53 µM)	relative viability ([4]; first compound 8 µM)
LOU-NH91	0.515	0.473	0.483	0.535	0.451	0.739	0.808	0.733	0.708	0.769	0.509	0.49	0.48	0.455	0.568	0.755	0.733	0.717	0.723	0.732
ChaGo-K-1	0.953	0.971	0.952	1.27	0.682	1.04	1.21	1.24	1.31	0.954	1.04	0.873	0.726	1.11	0.533	0.846	0.888	0.856	0.93	0.66
PC-14	1.12	0.833	0.957	0.942	0.697	0.921	0.888	0.845	0.999	0.926	0.859	0.946	0.947	0.949	1.01	0.356	0.341	0.284	0.342	0.282
NCI-H1437	0.599	0.496	0.495	0.486	0.469	0.909	0.952	0.81	0.926	0.795	0.537	0.581	0.63	0.458	0.378	1.19	1.08	1.17	0.995	1.08
NCI-H460	1.14	1.25	1.14	1.2	0.469	0.955	1.1	1.05	0.861	1.46	1.13	1.04	1.22	1.05	1.34	0.698	0.583	0.462	0.725	0.668
NCI-H1666	0.811	0.831	0.926	0.728	0.727	0.948	0.914	0.927	0.991	1.08	0.839	0.843	0.705	0.701	0.537	0.81	0.764	0.899	0.9	0.875
NCI-H1651	0.988	0.977	0.995	0.946	0.89	0.887	0.873	0.889	0.804	0.863	0.834	0.826	1.02	0.893	0.856	0.474	0.455	0.433	0.442	0.455
NCI-H1755	1.15	1.06	1.03	1.09	0.92	0.883	0.927	0.899	0.895	0.756	0.918	1.01	0.907	1.02	0.998	0.408	0.621	0.361	0.491	0.446
HARA	1.19	1.21	1.1	1.17	0.971	0.945	1.17	1.29	1.12	0.719	1.03	1.01		1.08	1.11				0.251	0.431
NCI-H596	1.03	0.929	1.11	1.07	0.995	1.01	1.07	1.04	0.95	0.943	0.919	0.808		0.994	0.983	1.1	1.08		1.15	0.952
NCI-H23	0.988	1.24	1.27	1.02	0.949	0.533	0.528	0.506	0.638	0.48	0.922	0.977	0.962	0.834	0.826	0.243	0.257	0.206	0.285	0.164
LCLC-97TM1	0.9	1.13	0.455	0.425	0.261	0.461	0.339	0.458		0.323	0.77	0.522	0.884	0.71	0.301	0.255	0.173	0.274	0.132	0.315
EPLC-272H	1.05	0.943	1.04		0.891	0.957	0.918	0.862		0.984	0.897	0.712	0.7	0.979	0.799	0.194	0.426	0.224	0.181	0.15
NCI-H1915	1.02	1.05	1.04		1.02	0.973	0.892	0.915		0.907	0.933	0.922	0.95	0.884	1.01	0.672	0.652	0.715	0.637	0.669
NCI-H2405	1.05	0.876	1.07	0.894	0.994	0.901	0.837	0.778	0.878	0.836	0.906	0.894	0.998	0.922	0.952	0.659	0.642	0.756	0.649	0.592
NCI-H322M	1.22	1.2	1.12	1.17	1.29	1.02	0.923	0.888	1.07	0.954	1.37	1.18	1.17	1.25	1.3		0.518	0.497	0.629	0.43
